Measurements taken from patent US20200222474A1, “COMPOSITIONS AND METHODS FOR INCREASING PHYTOCHEMICAL BIOAVAILABLITY AND BIOACTIVITY” (North Carolina State University, priority 2017, published 2020).

Test system: L. acidophilus NCFM
Assay: RNA-seq transcriptional analysis of L. acidophilus NCFM growing on plant glycosides
Format: cell-based, Lactobacillus acidophilus
[1] = gene LBA1206 (Hypothetical protein)
[2] = gene LBA1401 (Peroxidase (Npx))
[3] = gene LBA1435 (Hypothetical protein)
[4] = gene LBA1455 (Putative surface layer protein)
[5] = gene LBA1469 (UDP-glucose 4-epimerase)
[6] = gene LBA1656 (Hypothetical protein)
[7] = gene LBA1675 (Hypothetical protein)
[8] = gene LBA1676 (ATP-dependent helicase)
[9] = gene LBA1683 (Putative magnesium-transporting atpase)
[10] = gene LBA1704 (N-Acetylmuramic acid-6-phosphate etherase)
[11] = gene LBA1740 (Hypothetical protein)
[12] = gene LBA1752 (Hypothetical protein)
[13] = gene LBA1769 (Hypothetical protein)
[14] = gene LBA1793 (Hypothetical protein)
[15] = gene LBA1869 (Beta-phosphoglueomutase)
[16] = gene LBA1895 (Hypothetical protein)
[17] = nTPM on plant glycoside relative to glucose, mid-exponential phase

## N#C[C@H](O[C@@H]1O[C@H](CO[C@@H]2O[C@H](CO)[C@@H](O)[C@H](O)[C@H]2O)[C@@H](O)[C@H](O)[C@H]1O)c1ccccc1 [Amygdalin]
Gene LBA1027 (Oxidoreductase)
  Transcripts per million (rpm): 3613.2 rpm
[1]
  Log2 differential normalized TPM ratio compared to glucose: 3.2
  Log2 differential normalized TPM ratio compared to lactose: 2
  Transcripts per million (rpm): 984.2 rpm
[2]
  Log2 differential normalized TPM ratio compared to glucose: 4.4
  Log2 differential normalized TPM ratio compared to lactose: 2.3
  Transcripts per million (rpm): 1161.2 rpm
[3]
  Log2 differential normalized TPM ratio compared to glucose: 7.1
  Log2 differential normalized TPM ratio compared to lactose: 3.3
  Transcripts per million (rpm): 468.3 rpm
[4]
  Log2 differential normalized TPM ratio compared to glucose: 2.4
  Log2 differential normalized TPM ratio compared to lactose: 0.8
  Transcripts per million (rpm): 73.9 rpm
[5]
  Log2 differential normalized TPM ratio compared to glucose: 2.4
  Log2 differential normalized TPM ratio compared to lactose: −2.6
  Transcripts per million (rpm): 385.3 rpm
[6]
  Log2 differential normalized TPM ratio compared to glucose: 2.6
  Log2 differential normalized TPM ratio compared to lactose: 2.1
  Transcripts per million (rpm): 103.5 rpm
[7]
  Log2 differential normalized TPM ratio compared to glucose: 2.1
  Log2 differential normalized TPM ratio compared to lactose: 0.6
  Transcripts per million (rpm): 1397.9 rpm
[8]
  Log2 differential normalized TPM ratio compared to glucose: 1.9
  Log2 differential normalized TPM ratio compared to lactose: 0.7
  Transcripts per million (rpm): 953.4 rpm
[9]
  Log2 differential normalized TPM ratio compared to glucose: 2
  Log2 differential normalized TPM ratio compared to lactose: 2.3
  Transcripts per million (rpm): 53.6 rpm
[10]
  Log2 differential normalized TPM ratio compared to glucose: 2.1
  Log2 differential normalized TPM ratio compared to lactose: 1.4
  Transcripts per million (rpm): 23 rpm
[11]
  Log2 differential normalized TPM ratio compared to glucose: 0.1
  Log2 differential normalized TPM ratio compared to lactose: −0.7
  Transcripts per million (rpm): 15.4 rpm
[12]
  Log2 differential normalized TPM ratio compared to glucose: 0.8
  Log2 differential normalized TPM ratio compared to lactose: 0
  Transcripts per million (rpm): 12.1 rpm
[13]
  Log2 differential normalized TPM ratio compared to glucose: 3
  Log2 differential normalized TPM ratio compared to lactose: 1.2
  Transcripts per million (rpm): 10240.4 rpm
[14]
  Log2 differential normalized TPM ratio compared to glucose: 2.3
  Log2 differential normalized TPM ratio compared to lactose: −0.5
  Transcripts per million (rpm): 67 rpm
Gene LBA1796 (ABC exporter)
  Log2 differential normalized TPM ratio compared to glucose: 2.4
  Log2 differential normalized TPM ratio compared to lactose: −0.1
  Transcripts per million (rpm): 39.3 rpm
[15]
  Log2 differential normalized TPM ratio compared to glucose: 6.7
  Log2 differential normalized TPM ratio compared to lactose: 4.2
  Transcripts per million (rpm): 670.5 rpm
[16]
  Log2 differential normalized TPM ratio compared to glucose: 2.8
  Log2 differential normalized TPM ratio compared to lactose: 2.6
  Transcripts per million (rpm): 152.2 rpm
[17]
  Log2 Ratio vs Glc, LBA0225 Phospho-β-glucosidase (GH1): 6.5
  Log2 Ratio vs Glc, LBA0227 PTS EIIC: 9.9
  Log2 Ratio vs Glc, LBA0228 Transcriptional regulator: 6.3
  Log2 Ratio vs Glc, LBA0466 Phosphoenolpyruvate carboxykinase (ATP): 5.2
  Log2 Ratio vs Glc, LBA0491 PTS EIIC: 4.7
  Log2 Ratio vs Glc, LBA0492 Hypothetical protein: 5
  Log2 Ratio vs Glc, LBA0555 Myosin-cross-reactive antigen/Fatty acid hydratase: 6
  Log2 Ratio vs Glc, LBA0606 PTS EIIBC: 4.9
  Log2 Ratio vs Glc, LBA0631 Hypothetical protein: 7.2
  Log2 Ratio vs Glc, LBA0724 Transcriptional regulator (antiterminator): 6.4
  Log2 Ratio vs Glc, LBA0725 PTS EIICBA: 9.7
  Log2 Ratio vs Glc, LBA0726 Phospho-β-glucosidase (GH1): 7.2
  Log2 Ratio vs Glc, LBA0728 Hypothetical protein: 6
  Log2 Ratio vs Glc, LBA0876 PTS EIIC: 4.4
  Log2 Ratio vs Glc, LBA0877 PTS EIIA: 4.6
  Log2 Ratio vs Glc, LBA1401 Peroxidase (Npx): 4.4
  Log2 Ratio vs Glc, LBA1411 Fumarate reductase flavoprotein subunit: 4
  Log2 Ratio vs Glc, LBA1433 Dihydroxyacetone kinase: 6
  Log2 Ratio vs Glc, LBA1434 Dihydroxyacetone kinase: 6.7
  Log2 Ratio vs Glc, LBA1435 Hypothetical protein: 7.1
  Log2 Ratio vs Glc, LBA1436 Glycerol uptake facilitator protein: 7.2
  Log2 Ratio vs Glc, LBA1632 NAD-dependent aldehyde dehydrogenase: 4.4
  Log2 Ratio vs Glc, LBA1684 PTS EIIA: 6.6
  Log2 Ratio vs Glc, LBA1689 Maltose-6′-phosphate glucosidase (GH4): 5.3
  Log2 Ratio vs Glc, LBA1701 Melibiose operon regulatory protein: 5.3
  Log2 Ratio vs Glc, LBA1709 Mucus binding protein precursor: 4.5
  Log2 Ratio vs Glc, LBA1797 Hypothetical protein: 4.7
  Log2 Ratio vs Glc, LBA1812 α-Glucosidase II (GH31): 5.3
  Log2 Ratio vs Glc, LBA1869 β-Phosphoglucomutase: 6.7
  Log2 Ratio vs Glc, LBA1871 Neopullulanase (GH13): 4.3
  Log2 Ratio vs Glc, LBA1873 Acetate kinase: 4.6
  Log2 Ratio vs Glc, LBA1974 Pyruvate oxidase: 5.5
